Results reported in patent publication US4585773A, “Isoindolinyl-alkyl-piperazines” (Bristol-Myers Company, priority 1984, dated 1986).
Structures can show the parent of a compound that is named as a salt. Where two headings read alike, the source gives them in different places.

Key:
[1] = conscious rat diuretic screen of Lipschitz (Table I); assay type: in vivo, rat (female Sprague Dawley; male Okamoto-Aoki); details: female Sprague Dawley rats; for response vs control in vivo at 3 mg/kg / response vs control in vivo at 30 mg/kg / response vs control in vivo at 0.3 mg/kg: Rattus norvegicus, po
Description: With respect to diuretic utility there can be mentioned the conscious rat diuretic screen of Lipschitz, et al. (J. Pharmacol. Exp. Therap. 79, 97-110 (1943)). In this test, dose response assays of diuretic, natruiretic and kaliuretic activity are determined by oral administration of the test substance. The compounds synthesized in Examples I-XI were tested for diuretic […]. The compound of Example I was tested as its monohydrochloride 2-propanolate hydrate, i.e. as C22 […] ClN4 O4 S.HCl. 0.2(CH3)2 CHOH.0.15H2 O. Testing was carried out by the diuretic screen of Lipschitz, et al. described previously. In Table I below Volume Ratio is the ratio of total volume excreted for the test comuound compared to the total volume excreted for the control, Na^+ Ratio is the Na^+ excreted for the test compound compared to the Na^+ excreted for the control, K^+ Ratio is the K^+ excreted for the test compound compared to the K^+ excreted for the control. Female Sprague Dawley rats were used in Test Nos. 1, 2, 6, 7, 11-29. Male Okamoto-Aoki rats were used in Test Nos. 3-5 and 8-10 and testing for antihypertensive activity was carried out simultaneously on the Test Nos. 3-5 rats. In some instances, compounds were retested at the same dose level.

α1 = assay: in vitro α1 binding, [3H]WB-4101 (Table IV); details: [3H]WB-4101, brain tissue, 50 mM Hepes.KOH, pH 7.4; read-out: α1 Binding IC50
Description: (§1) In this Example the compounds of Examples I-XI were tested in vitro for α1 and α2 binding. The compound of Example I was tested as its monochloride 2-propanolate hydrate, i.e. as C22 […] CLN4 O4 S .HCl.0.2(CH3)2 CHOH 0.15H2 O. In the testing specific brain tissues were prepared as sources of binding sites. Aliquots of the washed members are incubated with a low concentration of […]. After incubation at suitable temperature, the reaction mixture is treated to separate the membrane-bound radioligand Radioactivity is measured. Linear regression analysis of the probit value for the percent of binding occurring in the presence of varying concentrations of the compound of interest plotted against the concentration of the compound yields concentrations which inhibit 50% specific binding, the IC50. The assay buffer is 50 mM Hepes.KOH, pH 7.4. The ligand is [^3 H]WB-4101 from New England Nuclear for α1 and [^3 H]Clonidine from New England Nuclear for α2. The results are considered against phentolamine methanesulfonate (Reference) which is considered a good α-binder.

[2] = tested on: DOCA-salt Hypertensive Rat; assay: antihypertensive activity, DOCA-salt Hypertensive Rat (Table II); assay type: in vivo; details: DOCA
Description: DOCA-salt Hypertensive Rat
Male rats initially weighing 80-100 g, are made hypertensive by surgically implanting two 50 mg pellets of deoxycorticosterone acetate (DOCA) under the skin of the abdomen of each rat and providing 1% saline ad libitum. After three weeks, the 1% saline is replaced with distilled water. One week later, animals are anesthetized with methoxyflurane and a catheter advanced into the aorta via the left common corotid artery to record mean arterial blood pressure (MABP) and heart rate. The heparin-filled catheter is passed beneath the skin and exteriorized behind the head. Two days later, MABP and heart rate are determined before and four hours after oral administration of vehicle (0.25% Methocel in 0.9% saline) or test compound suspended in vehicle at a dose volume equivalent to 5 ml/kg.
Testing was carried out on the compounds of Examples I-XII for antihypertensive activity. In the case of all the compounds testing was carried out on the Spontaneously Hypertensive rat as described hereinbefore. In the case of the compounds of Examples I-IV testing was also carried out on the DOCA-salt Hypertensive Rat. The compound of Example I was tested as its monochloride 2-propanolate hydrate, i.e. as C22 H27 ClN4 O4 S.HCl.0.2(CH3)2 CHOH.0.15H2 O in Tests 1-5; and as the 3/4 mole hydrochloride, i.e. C22 H27 ClN4 O4 S: 3/4 HCl in Tests 3a, 4a, 5a-5d. Test results are set forth in Table II below wherein SHR stands for Spontaneously Hypertensive rat, DOCA stands for DOCA-salt Hypertensive Rat, ΔBP stands for the change in systolic blood pressure in mm Hg, ΔHR stands for the change in mean heart rate in beats per minute and the times set forth are the times after dosing. A peak change in ΔBP of more than 20 is considered as indicating activity.

α2 = assay: in vitro α2 binding, [3H]Clonidine (Table IV); details: for IC50: [3H]Clonidine, brain tissue, 50 mM Hepes.KOH, pH 7.4, read-out: α2 Binding IC50
Description: as §1

[3] = tested on: Spontaneously Hypertensive rat; assay: antihypertensive activity, Spontaneously Hypertensive Rat (Table II); assay type: in vivo; details: for ΔBP 2 hours / ΔBP 4 hours / ΔHR 2 hours / ΔHR 4 hours: SHR, 30 mg/kg oral; for antihypertensive effect (in words): conclusion from Table II (SHR, and DOCA for Examples I-IV)
Description: Spontaneously Hypertensive Rat Male rats weighing 300-400 g, previously conditioned to the procedure, are prewarmed in a heating chamber (30° C.) for 10-20 min. and subsequently restrained in a wire holder at that temperature. Systolic blood pressure and heart rate are measured by the tailcuff technique using a pneumatic pulse transducer and a biotachometer before, and 2, 4, and 24 hours after oral administration of vehicle (0.25% Methocel in water) or test compounds suspended in vehicle at a dose volume equivalent to 5 ml/kg. Blood pressure and heart rate data are reported as changes from zero-hour measurements with vehicle control groups run periodically to confirm that the vehicle has no effect. Testing was carried out on the compounds of Examples I-XII for antihypertensive activity. In the case of all the compounds testing was carried out on the Spontaneously Hypertensive rat as described hereinbefore. In the case of the compounds of Examples I-IV testing was also carried out on the DOCA-salt Hypertensive Rat. The compound of Example I was tested as its monochloride 2-propanolate hydrate, i.e. as C22 […] ClN4 O4 S.HCl.0.2(CH3)2 CHOH.0.15H2 O in Tests 1-5; and as the 3/4 mole hydrochloride, i.e. C22 […] ClN4 O4 S: 3/4 HCl in Tests 3a, 4a, 5a-5d. Test results are set forth in Table II below wherein SHR stands for Spontaneously Hypertensive rat, DOCA stands for DOCA-salt Hypertensive Rat, ΔBP stands for the change in systolic blood pressure in mm Hg, ΔHR stands for the change in mean heart rate in beats per minute and the times set forth are the times after dosing. A peak change in ΔBP of more than 20 is considered as indicating activity.

[4] = tested on: α blocking activity (phenylephrine); assay: in vivo α blocking activity, phenylephrine (PE) as α-agonist (Table III); parameters: species or system rat; ED50: unit not given beside the values; details: for Average Dose Shift: ED50 after/before drug, PE, dose 10, intravenous
Description: In this example the compounds of Examples I (modified), II, III, V, VI, VII, VIII, IX and XI were tested in rats for in vivo α blocking activity according to methodology described at page 312 of Deitchman, et al., Journal of Pharmacological Methods, 3, 311-321 (1980). In this test phenylephrine (PE below) or norepinephrine (NE below) was administered as an α-agonist to the rats before and after dosing with the test drug and the average interpolated dose or PE/NE effecting a 50 mm Hg increase in mean arterial blood pressure was determined. Table III below records the results. In such Table, ED50 stands for such average interpolated dose and Average Dose Shift stands for the average ratio of ED50 after drug administration to ED50 before drug administration. The compound of Example I was tested as its monochloride 2-propanolate hydrate, i.e. as C22 H27 ClN4 O4 S.HCl 0.2(CH3)2 CHOH.0.15H2 O in Tests 1-5 and as the 3/4 mole hydrochloride, i.e. C22 H27 ClN 4 O4 S.3/4HCL in Tests 2a and 3a. The route was intravenous except in the case of the runs of Test Nos. 2a, 3, 3a, 26-29 the route was oral.

[5] = 3 mg/kg oral, read-out: Na+ Ratio
[6] = 3 mg/kg oral, read-out: Volume Ratio
[7] = 30 mg/kg oral, read-out: K+ Ratio
[8] = 30 mg/kg oral, read-out: Na+ Ratio
[9] = 30 mg/kg oral, read-out: Volume Ratio

| SMILES | response vs control in vivo at 3 mg/kg [1, 5] | response vs control in vivo at 3 mg/kg [1, 6] | response vs control in vivo at 30 mg/kg [1, 7] | response vs control in vivo at 30 mg/kg [1, 8] | IC50 (α1) | ΔBP 4 hours ([2]; 30 mg/kg oral) | ΔHR 4 hours ([2]; 30 mg/kg oral) | IC50 (α2) | ΔBP 2 hours [3] | ΔBP 4 hours [3] | ΔHR 2 hours [3] | ΔHR 4 hours [3] | antihypertensive effect (in words) [3] | Urinary Na/K (Test Compound) ([1]; 30 mg/kg oral) | response vs control in vivo at 30 mg/kg [1, 9] | Average Dose Shift [4] | other results |
| --- | --- | --- | --- | --- | --- | --- | --- | --- | --- | --- | --- | --- | --- | --- | --- | --- | --- |
| Cc1ccccc1N1CCN(CCCN2Cc3cc(Cl)c(S(N)(=O)=O)cc3C2=O)CC1 [Example IV, 6-Chloro-2,3-dihydro-2-[3-[4-(2-methylphenyl)-1-piperazinyl]propyl]-3-oxo-1H-isoindole-5-sulfonamide] | 123% | 104% | 117% | 121% | 0.00416 µM | -79 ± 4 mm Hg | 18 ± 13 beats per minute | 1.43 µM | -48 ± 19 mm Hg | -53 ± 7 mm Hg | -36 ± 5 beats per minute | -22 ± 22 beats per minute | good antihypertensive effect without significantly affecting heart rate | – | – | – | Urinary Na/K (Test Compound) ([1]; 3 mg/kg oral): 3.49; response vs control in vivo at 3 mg/kg ([1]; 3 mg/kg oral, read-out: K+ Ratio): 97%; ΔBP 4 hours ([2]; 0.3 mg/kg oral): -8 ± 3 mm Hg; ΔHR 4 hours ([2]; 0.3 mg/kg oral): 13 ± 21 beats per minute; ΔBP 4 hours ([2]; 3 mg/kg oral): -31 ± 7 mm Hg; ΔHR 4 hours ([2]; 3 mg/kg oral): 22 ± 9 beats per minute |
| NS(=O)(=O)c1cc2c(cc1Cl)CN(CCCN1CCN(c3cccc(Cl)c3)CC1)C2=O [Example II, 6-Chloro-2-[3-[4-(3-chlorophenyl)-1-piperazinyl]propyl]-2,3-dihydro-3-oxo-1H-isoindole-5-sulfonamide hydrochloride hemihydrate] | – | – | 129% | 143% | 0.00762 µM | -33 ± 5 mm Hg | 22 ± 17 beats per minute | 0.694 µM | -23 ± 4 mm Hg | -18 ± 7 mm Hg | -18 ± 10 beats per minute | -4 ± 16 beats per minute | good antihypertensive effect without significantly affecting heart rate | 3.41 | 117% | > 200 | in vivo α blocking activity (in words) ([4]; conclusion from Table III): active as in vivo α blockers; ED50 ([4]; iv): 34.0; α2 binding activity (in words) (α2): α2 binding activity |
| NS(=O)(=O)c1cc2c(cc1Cl)CN(CCCN1CCN(Cc3ccccc3)CC1)C2=O [Example V, 6-chloro-2,3-dihydro-3-oxo-2-[3-[4-(phenylmethyl)-1-piperazinyl]propyl]-1H-isoindole-5-sulfonamide] | 145% | 128% | 133% | 271% | 0.933 µM | – | – | 1.78 µM | -27 ± 10 mm Hg | -30 ± 14 mm Hg | -6 ± 15 beats per minute | -39 ± 14 beats per minute | good antihypertensive effect without significantly affecting heart rate | 4.14 | 220% | 1.7 ± 0.3 | Urinary Na/K (Test Compound) ([1]; 0.3 mg/kg oral): 2.33; response vs control in vivo at 0.3 mg/kg ([1]; 0.3 mg/kg oral, read-out: K+ Ratio): 99%; response vs control in vivo at 0.3 mg/kg ([1]; 0.3 mg/kg oral, read-out: Na+ Ratio): 97%; response vs control in vivo at 0.3 mg/kg ([1]; 0.3 mg/kg oral, read-out: Volume Ratio): 89% |
